Laboratory results: EPA's ToxValDB 9.5
Where “and” joins values, the source holds several entries; their conditions need not be identical. Equal values may be shown once.

Assays:
Rattus norvegicus [1] = settings: for LD50: acute
Oryctolagus sp. [2] = experiment: LD0; higher = less toxic; settings: acute; dermal; New Zealand
Anas platyrhynchos = settings: oral
Gallus sp. = settings: repeat dose other; oral
Rattus norvegicus [3] = tested on: Rattus norvegicus
Homo sapiens = settings: clinical, inhalation, M/F; for LOAEL: neurological
Rattus norvegicus [4] = settings: for NOAEL: M/F
Rattus norvegicus [5] = settings: repeat dose other; oral
Oryctolagus sp. [6] = settings: chronic; duration: 5 months; inhalation; intermittent; Nervous system: Neurotoxicity
Oryctolagus sp. [7] = settings: subchronic; inhalation; M/F; functional and histological peripheral neurotoxicity
Mus musculus [8] = settings: chronic; duration: 119 days; oral; diet; M/F; CD1; hepatic
Mus musculus [9] = settings: subchronic; duration: 13 weeks; oral; gavage; Liver: Lesions
Rattus norvegicus [10] = settings: subchronic; duration: 13 weeks; oral; gavage; M/F; Fischer 344; Deaths + Body Weight Changes: decrease + Absolute Organ Weight: Right kidney increase, Liver increase, Thymus decrease + Relative Organ …
Mus musculus [11] = settings: oral, M/F
Mus musculus [12] = settings: oral
Mus musculus [13] = settings: repeat dose other; oral
Chrysomus sp. = settings: oral
Rattus norvegicus [14] = settings: chronic, Liver: Toxicity
Rattus norvegicus [15] = experiment: LC0; higher = less toxic; settings: acute; inhalation
Mus musculus [16] = settings: acute; oral; gavage; CD1
Oryctolagus sp. [17] = settings: acute; dermal; semiocclusive
Rattus norvegicus [18] = experiment: LD0; higher = less toxic; settings: acute, oral, gavage
[19] = short-term, duration: 28 days, oral, gavage, Sprague-Dawley
[20] = chronic, duration: 104 weeks, hepatic necrosis

## NC1CCCCC1N (stereo not drawn) [1,2-Cyclohexanediamine]
Rattus norvegicus [1]; oral, gavage, Sprague-Dawley
  LD50: 1100 mg
Rattus norvegicus [1]; [19]
  LOAEL: 250 mg/kg-day
  NOAEL: 100 mg/kg-day
Rattus norvegicus [1]; subchronic, duration: 13 weeks, oral, gavage, Crj:CD
  NOAEL: 125 mg/kg-day
Oryctolagus sp. [2]
  LD0: 7500 mg/kg

## O=[As][O-].[Na+] [Sodium arsenite]
Anas platyrhynchos
  LOAEL: 12.8 mg/kg-day
  NOAEL: 5.14 mg/kg-day

## [Cu+].[Cu+].[O-2] [Cuprous oxide]
Gallus sp.
  LOAEL: 61.7 mg/kg-day
  NOAEL: 47 mg/kg-day

## C1COCCO1 [1,4-Dioxane]
Rattus norvegicus [3]; chronic, inhalation, M, atrophy and respiratory metaplasia of the olfactory epithelium
  LOAEL: 180 mg/m3
Rattus norvegicus [3]; chronic, oral, M, liver and kidney toxicity
  NOAEL: 9.6 mg/kg-day
Homo sapiens; duration: 2 hours, ocular
  NOAEL: 72.1 mg/m3
Rattus norvegicus [4]; chronic, duration: 104 weeks, inhalation, whole body, M, Fischer 344, respiratory
  LOAEL: 180 mg/m3
Rattus norvegicus [4]; chronic, duration: 716 days, oral, drinking water, Sherman Wistar, hepatic
  NOAEL: 9.6 mg/kg-day
Rattus norvegicus [4]; developmental, duration: 9 days, oral, gavage, Sprague-Dawley, developmental
  NOAEL: 516 mg/kg-day
Rattus norvegicus [4]; subchronic, duration: 13 weeks, oral, drinking water, Fischer 344, hepatic
  NOAEL: 52 mg/kg-day
Rattus norvegicus [5]
  LOAEL: 1 mg/kg-day
  NOAEL: 0.5 mg/kg-day

## C=CCCl [Allyl chloride]
Oryctolagus sp. [6]
  NOAEL: 17 mg/m3
Oryctolagus sp. [7]
  LOAEL: 206 mg/m3
  NOAEL: 17 mg/m3

## CN(C)C=O [N,N-Dimethylformamide]
Mus musculus [8]
  NOAEL: 96 mg/kg-day

## c1ccoc1 [Furan]
Mus musculus [9]
  NOAEL: 1.4 mg/kg-day
Rattus norvegicus [10]
  NOEL: < 4 mg/kg-day
Mus musculus [11]; subchronic, hepatic lesions
  NOAEL: 2 mg/kg-day
Rattus norvegicus [3]; subchronic, oral, M/F, hepatic lesions
  LOAEL: 4 mg/kg-day

## ClC1=C(Cl)C2(Cl)C3C(Cl)C(Cl)CC3C1(Cl)C2(Cl)Cl (stereo not drawn) [Technical chlordane]
Mus musculus [11]; [20]
  LOAEL: 0.75 mg/kg-day
  NOAEL: 0.15 mg/kg-day
Rattus norvegicus [3]; subchronic, inhalation, M/F, hepatic effects
  NOAEL: 1 mg/m3
Mus musculus [12]; developmental, duration: 7 days, gavage, M/F, albino, developmental
  LOAEL: 1 mg/kg-day
Rattus norvegicus [4]; subchronic, duration: 90 days, inhalation, Wistar, hepatic
  NOAEL: 0.1 mg/m3
Mus musculus [13]
  LOAEL: 9.2 mg/kg-day
  NOAEL: 4.6 mg/kg-day
Chrysomus sp.
  LOAEL: 10.7 mg/kg-day
  NOAEL: 2.14 mg/kg-day

## [Cl][Al]([Cl])[Cl] [Aluminum chloride]
Mus musculus [13]
  LOAEL: 19.3 mg/kg-day
  NOAEL: 1.93 mg/kg-day
Gallus sp.
  LOAEL: 44.5 mg/kg-day

## ClCCl [Dichloromethane]
Rattus norvegicus [14]; duration: 2 years, inhalation, intermittent
  NOAEL: 695 mg/m3
Rattus norvegicus [14]; duration: 24 months, oral, drinking water
  NOAEL: 5.85 mg/kg-day
Homo sapiens; duration: 1 days, chamber
  LOAEL: 1040 mg/m3
Rattus norvegicus [4]; chronic, duration: 2 years, inhalation, Sprague-Dawley, hepatic
  NOAEL: 174 mg/m3
Rattus norvegicus [4]; chronic, duration: 14 weeks, inhalation, unknown, hepatic
  LOAEL: 86.8 mg/m3
Rattus norvegicus [4]; chronic, duration: 104 weeks, oral, drinking water, Fischer-344, hepatic
  NOAEL: 6 mg/kg-day
Rattus norvegicus [5]
  LOAEL: 50 mg/kg-day
  NOAEL: 5.85 mg/kg-day

## FC(F)(F)C(F)(Cl)Cl [1,1-Dichlorotetrafluoroethane]
Rattus norvegicus [1]; short-term, duration: 2 weeks, inhalation, M, Crl:CDABR
  NOAEL: 289000 mg/m3
Rattus norvegicus [15]
  LC0: > 1.07e+06 mg/m3

## Cc1ccccc1 [1-Methylbenzene]
Mus musculus [12]; short-term, duration: 28 days, drinking water, M, CD1, immunological
  NOAEL: 22 mg/kg-day
Homo sapiens; duration: 20 minutes
  LOAEL: 56.5 mg/m3
Rattus norvegicus [4]; acute, duration: 1 days, oral, gavage, M, Long-Evans, neurological
  LOAEL: 250 mg/kg-day
Mus musculus [13]
  LOAEL: 260 mg/kg-day
  NOAEL: 26 mg/kg-day

## S=C(SN1CCOCC1)N1CCOCC1 [4-((Morpholinothio)thioxomethyl)morpholine]
Mus musculus [16]
  LD50: 7000 mg/kg and 9000 mg/kg and 11000 mg/kg
Oryctolagus sp. [17]
  LD50: > 10000 mg/kg
Rattus norvegicus [1]; oral, gavage
  LD50: 5110 mg/kg
Rattus norvegicus [1]; oral, gavage, Sprague-Dawley
  LD50: 5000 mg/kg and 5200 mg/kg
Rattus norvegicus [1]; reproduction developmental, duration: 12 weeks, oral, diet, Sprague-Dawley, generation: F0
  NOAEL: 200 ppm
Rattus norvegicus [1]; reproduction developmental, duration: 12 weeks, oral, diet, Sprague-Dawley, generation: F1
  NOAEL: 600 ppm
Rattus norvegicus [1]; reproduction developmental, oral, diet, Sprague-Dawley, generation: F0
  NOAEL: 600 ppm
Rattus norvegicus [15]
  LC0: 164 mg/L
Rattus norvegicus [18]
  LD0: 1000 mg/kg
Rattus norvegicus [18]; Sprague-Dawley
  LD0: 2700 mg/kg
